Source: patent publication US20230257372A1 (CHONG KUN DANG PHARMACEUTICAL CORP., priority 2020, published 2023)
Read-outs that look alike come from different tables or passages of the source.

Columns and labels:
[1] = target: T1, human recombinant HDAC1 (Homo sapiens, UniProt Q13547); experiment: HDAC1 enzyme activity inhibition (HDAC Fluorimetric Drug Discovery Kit); format: biochemical; settings: read-out: HDAC1
T1 construct: purchased Enzo Life Science, Inc. BML-SE456
How it was run: (§1)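 Fluorimetric deacetylase read-out. 5-fold compound dilutions; […] enzyme, 10 μM substrate; 30° C, 60 min; developer 30 min.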

[2] = target: T2, human recombinant HDAC6 (Homo sapiens, UniProt Q9UBN7); experiment: HDAC6 enzyme activity inhibition (HDAC Fluorimetric Drug Discovery Kit); format: biochemical
T2 construct: purchased Calbiochem Inc. 382180
T2 sequence (Q9UBN7 1-1215): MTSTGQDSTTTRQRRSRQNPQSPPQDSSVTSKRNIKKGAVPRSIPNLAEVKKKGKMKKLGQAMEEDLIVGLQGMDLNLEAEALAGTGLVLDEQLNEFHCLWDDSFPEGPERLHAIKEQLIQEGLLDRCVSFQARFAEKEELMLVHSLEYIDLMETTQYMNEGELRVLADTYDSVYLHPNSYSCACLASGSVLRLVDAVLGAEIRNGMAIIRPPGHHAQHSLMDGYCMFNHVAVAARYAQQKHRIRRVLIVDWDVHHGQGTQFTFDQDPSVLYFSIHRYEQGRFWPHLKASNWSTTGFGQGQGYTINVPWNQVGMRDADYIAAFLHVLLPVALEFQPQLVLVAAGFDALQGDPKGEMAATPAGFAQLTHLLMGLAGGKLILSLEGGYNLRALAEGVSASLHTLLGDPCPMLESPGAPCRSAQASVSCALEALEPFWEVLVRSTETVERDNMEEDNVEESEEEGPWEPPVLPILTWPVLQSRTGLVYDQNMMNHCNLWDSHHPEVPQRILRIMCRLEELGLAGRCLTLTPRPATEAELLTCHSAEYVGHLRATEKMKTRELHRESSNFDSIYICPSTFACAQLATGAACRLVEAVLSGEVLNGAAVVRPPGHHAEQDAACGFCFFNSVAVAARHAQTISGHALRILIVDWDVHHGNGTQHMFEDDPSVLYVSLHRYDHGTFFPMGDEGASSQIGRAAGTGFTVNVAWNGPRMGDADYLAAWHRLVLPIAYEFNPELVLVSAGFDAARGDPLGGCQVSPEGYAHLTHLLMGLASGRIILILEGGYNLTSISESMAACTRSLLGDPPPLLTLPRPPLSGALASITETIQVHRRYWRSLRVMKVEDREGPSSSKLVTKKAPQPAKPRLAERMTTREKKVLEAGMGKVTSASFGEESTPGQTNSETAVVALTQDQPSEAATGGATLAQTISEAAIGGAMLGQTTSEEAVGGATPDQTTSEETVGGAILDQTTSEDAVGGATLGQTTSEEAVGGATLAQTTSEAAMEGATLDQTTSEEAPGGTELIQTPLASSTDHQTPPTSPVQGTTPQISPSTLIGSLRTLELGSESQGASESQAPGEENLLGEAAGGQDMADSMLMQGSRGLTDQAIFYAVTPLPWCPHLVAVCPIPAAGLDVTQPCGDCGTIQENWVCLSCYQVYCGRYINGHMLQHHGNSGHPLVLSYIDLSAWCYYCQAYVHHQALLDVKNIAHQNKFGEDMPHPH
How it was run: as §1

[3] = human recombinant HDAC1, IC50 calculated with GraphPad Prism
[4] = human recombinant HDAC6, IC50 calculated with GraphPad Prism
[5] = human recombinant HDAC1, Fluor de Lys substrate, 30° C. 60 minutes
[6] = human recombinant HDAC6, same protocol as HDAC1

T1 sequence (Q13547 whole entry): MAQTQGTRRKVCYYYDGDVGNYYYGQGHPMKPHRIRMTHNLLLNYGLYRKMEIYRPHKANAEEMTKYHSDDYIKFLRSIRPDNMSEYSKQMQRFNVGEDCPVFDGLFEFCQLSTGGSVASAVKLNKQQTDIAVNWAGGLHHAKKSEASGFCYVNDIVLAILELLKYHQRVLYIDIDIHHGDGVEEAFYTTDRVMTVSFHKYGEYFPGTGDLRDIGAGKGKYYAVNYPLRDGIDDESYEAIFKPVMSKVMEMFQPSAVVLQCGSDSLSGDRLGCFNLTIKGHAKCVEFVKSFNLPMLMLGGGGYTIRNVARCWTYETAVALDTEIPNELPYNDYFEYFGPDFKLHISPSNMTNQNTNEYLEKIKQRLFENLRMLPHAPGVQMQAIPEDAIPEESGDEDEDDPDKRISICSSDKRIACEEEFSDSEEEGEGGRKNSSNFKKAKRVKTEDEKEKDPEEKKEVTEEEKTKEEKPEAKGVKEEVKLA

SMILES	IC50 [1, 3] [nM]	HDAC6 selectivity (fold) ([2]; HDAC1 IC50 / HDAC6 IC50)	IC50 [2, 4] [nM]	IC50 [1, 5] [nM]	HDAC6 selectivity (fold) ([2]; HDAC6 over HDAC1)	IC50 [2, 6] [nM]
Fc1cc(-c2nnc(C(F)F)o2)ccc1Cn1cc(-c2cccc(CN3CC(F)(F)C3)c2)nn1 [Compound 4418, 2-(4-((4-(3-((3,3-difluoroazetidin-1-yl)methyl)phenyl)-1H-1,2,3-triazol-1-yl)methyl)-3-fluorophenyl)-5-(difluoromethyl)-1,3,4-oxadiazole]	> 50000	837	59.7			
Fc1cc(-c2nnc(C(F)F)o2)ccc1Cn1cc(-c2cncc(Br)c2)nn1 [Compound 16930, 2-(4-((4-(5-bromopyridin-3-yl)-1H-1,2,3-triazol-1-yl)methyl)-3-fluorophenyl)-5-(difluoromethyl)-1,3,4-oxadiazole]				> 50000	1043	47.9
Fc1cc(-c2nnc(C(F)F)o2)ccc1Cn1cc(-c2ccc(F)c(N3C[C@@H]4C[C@H]3CN4)c2)nn1 [Compound 4399, 2-(4-((4-(3-((1S,4S)-2,5-diazabicyclo[2.2.1]heptan-2-yl)-4-fluorophenyl)-1H-1,2,3-triazol-1-yl)methyl)-3-fluorophenyl)-5-(difluoromethyl)-1,3,4-oxadiazole]	> 50000	460	108			
CS(=O)(=O)N1CCC(c2cn(Cc3ccc(-c4nnc(C(F)F)o4)cn3)nn2)CC1 [Compound 3812]	> 50000	446	112			
CN(C)Cc1c(-c2ccccc2)nnn1Cc1ccc(-c2nnc(C(F)F)o2)cc1F [Compound 4491, 1-(1-(4-(5-(difluoromethyl)-1,3,4-oxadiazol-2-yl)-2-fluorobenzyl)-4-phenyl-1H-1,2,3-triazol-5-yl)-N,N-dimethylmethanamine]	> 50000	433	115			
C[C@@H]1CN(c2cccc(-c3cn(Cc4ccc(-c5nnc(C(F)F)o5)cc4F)nn3)c2)C[C@H](C)N1 [Compound 4439, 2-(difluoromethyl)-5-(4-((4-(3-((3R,5S)-3,5-dimethylpiperazin-1-yl)phenyl)-1H-1,2,3-triazol-1-yl)methyl)-3-fluorophenyl)-1,3,4-oxadiazole]	> 50000	1831	27.3			

Next, values leading:

IC50 [1, 3] [nM]	HDAC6 selectivity (fold) ([2]; HDAC1 IC50 / HDAC6 IC50)	IC50 [2, 4] [nM]	IC50 [1, 5] [nM]	HDAC6 selectivity (fold) ([2]; HDAC6 over HDAC1)	IC50 [2, 6] [nM]	SMILES
			> 50000	4761	10.5	FC(F)c1nnc(-c2ccc(Cn3cc(-c4ccc(CN5CC6(COC6)C5)cc4)nn3)cc2)o1 [Compound 4551, 6-(4-(1-(4-(5-(difluoromethyl)-1,3,4-oxadiazol-2-yl)benzyl)-1H-1,2,3-triazol-4-yl)benzyl)-2-oxa-6-azaspiro[3.3]heptane]
			> 50000	2688	18.6	CCN1CCN(c2cccc(-c3cn(Cc4ccc(-c5nnc(C(F)F)o5)cc4F)nn3)c2F)CC1 [Compound 4577, 2-(difluoromethyl)-5-(4-((4-(3-(4-ethylpiperazin-1-yl)-2-fluorophenyl)-1H-1,2,3-triazol-1-yl)methyl)-3-fluorophenyl)-1,3,4-oxadiazole]
> 50000	487	102				FC(F)c1nnc(-c2ccc(Cn3cc(-c4cccc(CN5CC(F)(F)C5)c4)nn3)cc2)o1 [Compound 4417, 2-(4-((4-(3-((3,3-difluoroazetidin-1-yl)methyl)phenyl)-1H-1,2,3-triazol-1-yl)methyl)phenyl)-5-(difluoromethyl)-1,3,4-oxadiazole]
> 50000	1533	32.6				CCN1CCN(c2cccc(-c3cn(Cc4ccc(-c5nnc(C(F)F)o5)cc4)nn3)c2)CC1 [Compound 4368, 2-(difluoromethyl)-5-(4-((4-(3-(4-ethylpiperazin-1-yl)phenyl)-1H-1,2,3-triazol-1-yl)methyl)phenyl)-1,3,4-oxadiazole]
